From patent publication US6878690B2, “Compounds and methods” (PharmAxis Pty Ltd., priority 2000, dated 2005)

Key:
[1] = test system: myelin basic protein (MBP)-specific T lymphocyte cell lines; assay: Inhibition of T-lymphocyte migration across rat brain endothelial cell layer (Transwell, 51Cr-labelled cells); type: cell-based, Lewis rats; conditions: test substance 10 mmolar in upper well; 6 hours; in comparison with the negative control (glucose 6-phosphate); triplicate
Text: Vascular endothelial cells were isolated from rat brain capillaries taken from 6 to 8 week old Lewis rats according to the method of Risau et al. (Risau, W., Engelhardt, B., and Wekerle, H., (1990). Journal of Cell Biology, vol 110, p 1757-1766, which is incorporated herein by reference). Colonies of endothelial cells were purified from astroglial cells and pericytes by a Thy1.1-mediated complement lysis also after the method of Risau et al. (vide supra). The endothelial colonies, according to methods known in the art, were grown in Dulbecco's minimum essential medium (DMEM) high glucose supplemented, with 20% fetal calf serum (FCS), glutamine, pyruvate, nonessential amino acids, 4-(2-hydroxyethyl)-1-piperazine ethane sulfonic acid buffer (HEPES), kanamycin, amphotericin, heparin (all from Gibco) and 150 micrograms/ml endothelial growth supplement (Collaborative Biomedical Products). Upon reaching confluence, the endothelial cultures were washed with 0.2% EDTA in phosphate buffered saline (PBS), trypsinized (Trypsin-EDTA, 0.1% final concentration, Gibco), washed and again incubated with anti-Thy1.1 antibody for 40 minutes, washed and incubated with complement sufficient to lyse all Thy1.1+ cells (Behringwerke, AG, Marburg, Germany) at room temperature, washed and plated on matrigel-coated 6.5 mm Transwells, […] (Corning Costar Corporation, Cambridge, Mass.). The endothelial cell characteristics and confluence of the monolayer were checked by measuring the electrical resistance (World Precision Instruments, New Haven, U.S.A., model EVOM-G) and by staining with FITC-labeled phalloidin (Sigma). In order to study the effect of the agents of the present invention on T lymphocyte migration, myelin basic protein (MBP)-specific T lymphocyte cell lines were generated according to the method of Ben-Nun et al. (Ben-Nun, A., Wekerle, H. and Cohen, I. R., 1981). The rapid isolation of clonable antigen-specific T lymphocyte lines capable of mediating autoimmune encephalomyelitis. European Journal of Immunology. 1981, 11(3), 195-199; incorporated herein by reference) from the lymph nodes of Lewis rats that had been immunised with MBP in Freund's complete adjuvant. These cells were used for migration studies during the first 4 days of their propagation in IL-2 containing medium, following antigen (MBP) restimulation in the presence of antigen-presenting cells from irradiated spleen cells or thymocytes taken from normal Lewis rats. The antigen-activated T lymphocytes were radio-labelled with sodium chromate (^51Cr, 37 MBq/ml, Amersham, UK) for 30 minutes at 37° C. with occasional agitation, they were then washed three times with the DMEM culture medium and placed into the upper chamber of the Transwells at 5×10^5 cells in 100 microliters of migration medium. Test and control substance were included in the upper wells at final concentrations of 0.1, 1 and 10 mM. Cell migration was monitored by light microscopy in order to gauge progress of the experiment. […] The combined material was transferred into scintillation vials and the radioactivity of each tube determined by counting for 1 minute in a Packard Auto-Gamma 5650 (IL, USA) gamma counter. Each test and the control substance (glucose 6-phosphate) and no treatment were assessed in triplicate. […]

[2] = test system: passively transferred adjuvant arthritis; assay: Passively transferred adjuvant induced arthritis; type: in vivo, DA rats; conditions: 37 mg/kg/day, end of the two week treatment period, FIG. 2
Description: Male DA rats 8 to 10 week old were immunised with three 100 microliter injections of Complete Freund's Adjuvant (CFA) intradermally at the base of the tail. The CFA was prepared by mixing 8 mg/ml of Mycobacterium butyricum (Difco Laboratories, USA) that had been ground to a fine powder using a mortar and pestle, in 85% light mineral oil (Sigma, USA) and 15% mannide monooleate (Sigma) and emulsifying this suspension, one part in one part saline. Thus, the final emulsion contained 4 mg/ml of M. butyricum.
Ten days after immunisation the rats were euthanased and the spleens removed aseptically. A single cell suspension was prepared in the usual manner in mixed lymphocyte culture medium (MLC) (Dulbecco's Modified Eagle's Medium (DMEM) plus glucose, folic acid, L-asparagine, sodium pyruvate, HEPES, 2-mercapto ethanol, penicillin, streptomycin, neomycin and 10% fetal calf serum) by pushing the spleens through a stainless steel sieve. The cells were placed in culture in MLC medium with 2 micrograms/ml concanavalin A added such that the lymphocyte concentration was 2 million cells per milliliter. These cells were cultured aseptically at 37° C. in an atmosphere containing 5% carbon dioxide for 72 hours.
Groups of 4 or 5 DA rats, 6 to 8 weeks of age were anesthetised with diethyl ether and implanted subcutaneously on the flank with Alzet 2002 (2 week delivery) or 2001 (1 week delivery) mini-osmotic pumps (Alza Corp., Palo Alto Calif., USA). One treatment group received phosphoric acid mono-(6-propyl-3,4,5-trihydroxy-tetrahydro-pyran-2-ylmethyl) ester in the one week delivery Alzet 2001 mini-osmotic pumps. The drug was delivered at a dose of 25 mg/kg/day. The control group for this experiment received identical mini-osmotic pumps containing normal saline. In a second experiment another group of DA rats received ethyl (3,4,5-trihydroxy-6-phosphonooxymethyl-tetrahydro-pyran-2-yl)-acetic acid ester in the two week delivery Alzet 2002 mini-osmotic pumps. This drug was delivered at a dose of 37 mg/kg/day. Control animals for this group received saline delivered in identical mini-osmotic pumps. The pumps in each case were implanted subcutaneously on the flank of each animal. […]
After 5 to 8 days, a characteristic thickening and cutaneous hyperemia of the distal joints of the hind legs became clinically apparent in the saline control animals. Disease severity was evaluated and graded in each group by taking daily measurements of the mediolateral widths of both ankle joints. The data were expressed as the mean of the change (compared with width prior to cell injection) in mediolateral ankle width expressed in millimeters (±standard error of the mean).

[3] = test system: lymphocyte migration into the spleen; assay: Inhibition of lymphocyte migration into lymphoid tissue (spleen); type: in vivo, Balb/C mice; conditions: intravenous dose of 5 mg of test compound together with labelled lymphocytes; spleens removed 1.5 hours after injection
Text: In the present example, spleens from specific pathogen free 6-8 week old female Balb/C mice [19-21 g] were used to prepare a single cell suspension in the usual manner in mixed lymphocyte culture medium (DMEM plus glucose, folic acid, L-asparagine, sodium bicarbonate, L-glutamine, sodium pyruvate, HEPES, 2-mercaptoethanol, penicillin, streptomycin, neomycin, and 2% fetal calf serum) by pushing through a stainless steel screen. Following cell collection the red blood cells were lysed in the usual manner by treating with a solution of ammonium chloride, EDTA and sodium hydrogen carbonate (pH 7.3) and the preparation strained (Falcon 2350 cell strainer). All cell preparative steps were performed on ice.
In order to deplete the preparation of B lymphocytes, the cells were suspended in purified rat anti-mouse CD45/B220 antibody (RA3-6B2 clone; PharMingen, USA) at a concentration of 4×10^7 cells per ml and incubated on ice for 20 minutes. An equal volume of mixed lymphocyte culture medium (as above) was then added and the cells centrifuged (200× g) and resuspended at a concentration of 1×10^7 cells per ml in BioMag goat ant-rat IgG (H&L) linked to magnetic beads (Bio Mag; Perseptive Diagnostics, Polysciences Inc, USA). Following a 20 minute incubation on ice, with agitation every 5 minutes, the goat anti-rat IgG/antibody complex was removed using magnetic separation (Dynal MPC-6, Dynal, USA). The magnetic separation procedure was repeated 4 times giving a cell population containing approximately 80-90% T lymphocytes (determined by FACS analysis).
The cells were then washed in Hanks media, resuspended in 5 ml of Hanks, and radio-labelled for 30 minutes at 37° C. with sodium chromate solution (^51Cr, 34 MBq/ml, Amersham, UK). The labelled cells were washed in PBS centrifuged (200×g) and a portion were resuspended at a concentration of 3×10^7 cells/ml in either PBS (negative control), or PBS containing the test compound (25 mg/ml), and stored on ice. Balb/C mice in the negative control and treatment groups received a volume of 0.2 ml of the labelled cell preparation by a lateral tail vein injection. Negative control mice received 0.2 ml of PBS together with 6×10^6 51chromium-labelled lymphocytes, and mice from the treated groups received an intravenous dose of 5 mg of the test compound together with 6 million ^51chromium-labelled lymphocytes. […]
Spleens from the recipient mice were removed 1.5 hours after injection and the cell-associated radioactivity (CPM) determined using a gamma counter (Packard Auto-Gamma 5650. IL, USA). Results (inhibition of lymphocyte migration into the spleen) were expressed as a percentage reduction in the CPM of the spleens from treated animals compared with negative controls.

## CCOC(=O)CC1OC(COP(=O)(O)O)C(O)C(O)C1O (stereo not drawn) [Ethyl (3,4,5-trihydroxy-6-phosphonooxymethyl-tetrahydro-pyran-2-yl)-acetic acid ester]
[1]
  % inhibition ± SEM: 70 ± 4%
[2]; two week Alzet 2002 pump subcutaneously, controls severe swelling
  swelling in the affected joints of treated animals: little swelling
[2]; two week Alzet 2002 pump
  disease status of the treated versus the control animals: highly statistically significant difference

## O=C(O)CC1OC(COP(=O)(O)O)C(O)C(O)C1O (stereo not drawn) [(3,4,5-trihydroxy-6-phosphonooxymethyl-tetrahydro-pyran-2-yl)-acetic acid]
[1]
  % inhibition ± SEM: 32 ± 2%

## CCCCCOC(=O)CC1OC(COP(=O)(O)O)C(O)C(O)C1O (stereo not drawn) [Pentyl (3,4,5-trihydroxy-6-phosphonooxymethyl-tetrahydro-pyran-2-yl)-acetic acid ester]
[1]
  % inhibition ± SEM: 80 ± 4%

## O=C[C@H](O)[C@@H](O)[C@H](O)[C@H](O)COP(=O)(O)O [glucose 6-phosphate, reference compound]
[1]
  % inhibition ± SEM: 0 ± 5%

## N#CC1OC(COP(=O)([O-])[O-])C(O)C(O)C1O.[Na+].[Na+] (stereo not drawn) [6-cyano-3,4,5-trihydroxy-tetrahydro-pyran-2-ylmethyl phosphoric acid ester disodium salt]
[3]
  Percent Inhibition (relative to negative controls) of lymphocyte migration into spleens: 45.0%

## CCOC(=O)CC1OC(COP(=O)([O-])O)C(O)C(O)C1O.[Na+] (stereo not drawn) [Ethyl (3,4,5-trihydroxy-6-phosphonooxymethyl-tetrahydro-pyran-2-yl)-acetic acid ester sodium salt]
[3]
  Percent Inhibition (relative to negative controls) of lymphocyte migration into spleens: 32.4%

## O=P([O-])(O)OCC1OCC(O)C(O)C1O.[Na+] (stereo not drawn) [mono-(3,4,5-trihydroxy-tetrahydro-pyran-2-ylmethyl)phosphoric acid ester mono sodium salt]
[3]
  Percent Inhibition (relative to negative controls) of lymphocyte migration into spleens: 68.0%
